# In publication PMC12295927, “Design, Synthesis, and Testing of 1,2,3-Triazolo-Quinobenzothiazine Hybrids for Cytotoxic and Immunomodulatory Activity” (International Journal of Molecular Sciences, 2025):
# System: AIFM2 gene
# Test: RT-qPCR AIFM2 gene expression in HCT116
# Assay type: cell-based, Human
# Conditions: HCT116, 100 μM, 24 h, vs untreated control
# Experimental: In each of the four compound groups: MJ1–MJ5, MJ6–MJ10, MJ11–MJ15, and MJ16–MJ20, one compound was selected based on the best IC50 value and a distinctive gene expression profile (BCL2, MDM2, AIFM2, IL6, IL8).
# Gene expression studies used quantitative RT-qPCR to assess the effect of the tested quinobenzothiazines (MJ1–MJ20) on the expression of apoptosis-related genes (BCL2, AIFM2, MDM2) and pro-inflammatory cytokines (IL6, IL8) (Table 4).
# BEAS-2B and HCT116 cells were seeded in 6-well plates at 2 × 10^5 cells per well and cultured in RPMI-1640 (BEAS-2B) or DMEM (HCT116) medium supplemented with 10% FBS and 1% penicillin/streptomycin at 37 °C, 5% CO2 and 95% humidity. After 24 h of incubation, the tested compounds were added at a concentration of 100 µM. After 24 h, the medium was removed from the cells, washed with PBS solution, 0.5 mL of trypsin was added per well and after 5 min it was neutralized with medium. […]
# Total RNA was isolated from cells using the A&A Biotechnology Total RNA Mini kit according to the manufacturer’s protocol. RNA quality and quantity were assessed using a NanoDrop 2000 spectrophotometer at 260/280 nm. […]
# The results were analyzed using the R = 2^−ΔΔCt method, which allows for determining the relative level of gene expression (R) compared to the control. […]
smiles,measurement,value
"Clc1ccc2c(c1)Sc1cc3ccccc3nc1N2Cc1cn(CSc2ccccc2)nn1 [MJ15, 9-Chloro-6-((1-((phenylthio)methyl)-1H-1,2,3-triazol-4-yl)methyl)-quino[3,2-b]benzo[1,4]thiazine]","Relative level of expression, AIFM2 gene",4.94
